Reference: US20250120981A1, “MRTX1133 PHARMACEUTICAL COMPOSITIONS” (MIRATI THERAPEUTICS, INC., priority 2023, published 2025)
“And” between values parts separate entries of the source, which are not always exact repeats. Equal values may be shown once.

Test: Pharmacokinetics in humans, MRTX1133 formulation, oral, single and multiple doses
Assay type: in vivo
Settings: for AUCExtrap, Geo Mean: geometric mean of subjects
Procedure: The pharmacokinetics [PK] of the MRTX1133 formulation after oral administration has been evaluated in 25 subjects across 3 escalating dose frequencies under fasting conditions (200 mg twice daily [BID], 400 mg BID, and 800 mg BID), as well as evaluation of 400 mg BID when administered with a low-fat meal (i.e., under fed conditions). The mean (+standard deviation) single-dose and multiple-dose pharmacokinetic profiles of the evaluated doses are presented in FIG. 9 and FIG. 10, respectively. Individual single- and multiple-dose PK profiles can be found in FIG. 11. For all figures, the X-axis represents nominal time of sample collection (hours [h]) and the Y-axis represents plasma concentration (ng/mL). Table 10 lists PK data following the oral administration of a single dose and multiple doses of MRTX1133 formulation by dose level and subject.

[1] = multiple oral doses of 800 mg BID, fasted, individual subjects 1-8
[2] = single oral dose of 200 mg, fasted, individual subjects
[3] = single oral dose of 400 mg with a low-fat meal, individual subjects
[4] = single oral dose of 400 mg, fasted, individual subjects
[5] = single oral dose of 800 mg, fasted, individual subjects 1-8

Question: With `C#Cc1c(F)ccc2cc(O)cc(-c3ncc4c(N5C[C@H]6CC[C@@H](C5)N6)nc(OC[C@@]56CCCN5C[C@H](F)C6)nc4c3F)c12` [MRTX1133, 4-(4-((1R,5S)-3,8-diazabicyclo[3.2.1]octan-3-yl)-8-fluoro-2-(((2R,7aS)-2-fluorohexahydro-1Hpyrrolizin-7a-yl)methoxy)pyrido[4,3-d]pyrimidin-7-yl)-5-ethynyl-6-fluoronaphthalen-2-ol] as the molecule, how does the AUC0-12 [1] read?
Answer: Its AUC0-12 is 227 ng·h/mL and 509 ng·h/mL and 130 ng·h/mL and 744 ng·h/mL and 248 ng·h/mL and 820 ng·h/mL and 264 ng·h/mL.

Question: What about the “AUC0-12 Accumulation Ratio” value [1] of the same molecule?
Answer: The value was 0.79 and 0.20 and 0.71 and 4.46 and 1.87 and 1.41 and 1.05.

Question: What about the AUC0-last [1] of the same molecule?
Answer: Its AUC0-last is 227 ng · h/mL and 509 ng · h/mL and 130 ng · h/mL and 744 ng · h/mL and 248 ng · h/mL and 820 ng · h/mL and 4,458 ng · h/mL and 264 ng · h/mL.

Question: And the Cmax [1]?
Answer: Its Cmax is 38.2 ng/mL and 241 ng/mL and 34.4 ng/mL and 165 ng/mL and 29.8 ng/mL and 105 ng/mL and 812 ng/mL and 72.6 ng/mL.

Question: And the “Cmax Accumulation Ratio” value [1]?
Answer: The value was 0.30 and 0.14 and 0.34 and 2.57 and 1.24 and 1.30 and 1.86 and 1.68.

Question: What about the “Peak to Trough Ratio” value [1] of the same molecule?
Answer: Its value is 15.0 and 12.5 and 17.1 and 13.8 and 2.81 and 2.88 and 10.4 and 20.0.

Question: And the Tlast [1]?
Answer: The Tlast was 12 h (7×) and 8 h.

Question: What about the Tmax [1] of the same molecule?
Answer: The Tmax was 6.0 h and 0.5 h (3×).

Question: What about the Plasma concentration (single oral dose of 200 mg, fasted, 0 h, individual subjects) of the same molecule?
Answer: Its Plasma concentration is “BQL”.

Question: And the Plasma concentration (single oral dose of 200 mg, fasted, 0.5 h, individual subjects)?
Answer: The Plasma concentration was “BQL”.

Question: What about the Plasma concentration (single oral dose of 200 mg, fasted, 1 h, individual subjects) of the same molecule?
Answer: The Plasma concentration was 116 ng/mL and 6.88 ng/mL and 44.6 ng/mL (2×) and 9.39 ng/mL.

Question: And the Plasma concentration (single oral dose of 200 mg, fasted, 1.5 h, individual subjects)?
Answer: Its Plasma concentration is 49.8 ng/mL and 3.38 ng/mL and 57.9 ng/mL and 41.4 ng/mL and 42.7 ng/mL.

Question: What about the Plasma concentration (single oral dose of 200 mg, fasted, 2 h, individual subjects) of the same molecule?
Answer: The Plasma concentration was 20.4 ng/mL and 4.01 ng/mL and 26.7 ng/mL and 23.5 ng/mL and 122 ng/mL.

Question: And the Plasma concentration (single oral dose of 200 mg, fasted, 48 h, individual subjects)?
Answer: Its Plasma concentration is “BQL”.

Question: And the Plasma concentration (single oral dose of 200 mg, fasted, 72 h, individual subjects)?
Answer: The Plasma concentration was “BQL”.

Question: And the Plasma concentration (single oral dose of 200 mg, fasted, 96 h, individual subjects)?
Answer: Its Plasma concentration is “BQL”.

Question: What about the “AUCExtrap, Geo Mean” value (single oral dose of 200 mg, fasted) of the same molecule?
Answer: The value was 7.4%.

Question: And the AUC0-12 [2]?
Answer: Its AUC0-12 is 140 ng·h/mL and 89.2 ng·h/mL and 98.1 ng·h/mL and 99.3 ng·h/mL and 585 ng·h/mL.

Question: And the AUC0-inf [2]?
Answer: The AUC0-inf was 157 ng · h/mL and 107 ng · h/mL (2×) and 103 ng · h/mL and 653 ng · h/mL.

Question: What about the AUC0-last [2] of the same molecule?
Answer: The AUC0-last was 152 ng·h/mL and 89.2 ng·h/mL and 98.1 ng·h/mL and 99.3 ng·h/mL and 585 ng·h/mL.

Question: And the AUCExtrap [2]?
Answer: Its AUCExtrap is 3.42% and 16.3% and 4.88% and 7.77% and 10.4%.

Question: And the Cmax [2]?
Answer: The Cmax was 116 ng/mL and 21.0 ng/mL and 57.9 ng/mL and 44.6 ng/mL and 122 ng/mL.

Question: And the Tlast [2]?
Answer: The Tlast was 24 h and 12 h (3×) and 12^a h.

Question: And the Plasma concentration (single oral dose of 400 mg with a low-fat meal, 0 h, individual subjects)?
Answer: The Plasma concentration was “BQL”.

Question: What about the Plasma concentration (single oral dose of 400 mg with a low-fat meal, 1 h, individual subjects) of the same molecule?
Answer: Its Plasma concentration is 77.0 ng/mL and 18.7 ng/mL and 28.2 ng/mL and 85.1 ng/mL and 24.7 ng/mL.

Question: What about the Plasma concentration (single oral dose of 400 mg with a low-fat meal, 2 h, individual subjects) of the same molecule?
Answer: The Plasma concentration was 83.2 ng/mL and 39.9 ng/mL and 6.47 ng/mL and 76.4 ng/mL and 12.0 ng/mL.

Question: And the Plasma concentration (single oral dose of 400 mg with a low-fat meal, 3 h, individual subjects)?
Answer: The Plasma concentration was 71.5 ng/mL and 3.84 ng/mL and 85.8 ng/mL and 13.6 ng/mL.

Question: And the Plasma concentration (single oral dose of 400 mg with a low-fat meal, 4 h, individual subjects)?
Answer: Its Plasma concentration is 65.9 ng/mL and 93.9 ng/mL and 2.43 ng/mL and 99.8 ng/mL and 36.5 ng/mL.

Question: And the Plasma concentration (single oral dose of 400 mg with a low-fat meal, 5 h, individual subjects)?
Answer: Its Plasma concentration is 41.4 ng/mL (2×) and 1.41 ng/mL and 163 ng/mL and 22.5 ng/mL.

Question: What about the Plasma concentration (single oral dose of 400 mg with a low-fat meal, 6 h, individual subjects) of the same molecule?
Answer: Its Plasma concentration is 59.5 ng/mL and 16.9 ng/mL and 1.02 ng/mL and 125 ng/mL and 15.5 ng/mL.

Question: What about the Plasma concentration (single oral dose of 400 mg with a low-fat meal, 12 h, individual subjects) of the same molecule?
Answer: Its Plasma concentration is “BQL”.

Question: What about the “AUCExtrap, Geo Mean” value (single oral dose of 400 mg with a low-fat meal) of the same molecule?
Answer: The value was 6.3%.

Question: And the AUC0-12 [3]?
Answer: The AUC0-12 was 564 ng·h/mL and 305 ng·h/mL and 42.6 ng·h/mL and 889 ng·h/mL and 169 ng·h/mL.

Question: And the AUC0-inf [3]?
Answer: Its AUC0-inf is 651 ng · h/mL and 317 ng · h/mL and 43.2 ng · h/mL and 1,351 ng · h/mL and 200 ng · h/mL.

Question: What about the AUC0-last [3] of the same molecule?
Answer: Its AUC0-last is 564 ng · h/mL and 305 ng · h/mL and 42.6 ng · h/mL and 1,307 ng · h/mL and 169 ng · h/mL.

Question: What about the AUCExtrap [3] of the same molecule?
Answer: The AUCExtrap was 13.4% and 3.77% and 3.88% and 3.25% and 15.3%.

Question: And the Cmax [3]?
Answer: Its Cmax is 83.2 ng/mL and 93.9 ng/mL and 28.2 ng/mL and 163 ng/mL and 36.5 ng/mL.

Question: And the Tlast [3]?
Answer: Its Tlast is 12 h (3×) and 8 h and 96 h.

Question: And the Tmax [3]?
Answer: Its Tmax is 5.0 h.

Question: And the Plasma concentration (single oral dose of 400 mg, fasted, 0 h, individual subjects)?
Answer: The Plasma concentration was “BQL”.

Question: And the Plasma concentration (single oral dose of 400 mg, fasted, 0.5 h, individual subjects)?
Answer: The Plasma concentration was “BQL”.

Question: And the “AUCExtrap, Geo Mean” value (single oral dose of 400 mg, fasted)?
Answer: Its value is 7.6%.

Question: And the AUC0-inf [4]?
Answer: The AUC0-inf was 636 ng · h/mL and 98.4 ng · h/mL and 137 ng · h/mL and 169 ng · h/mL and 126 ng · h/mL and 1,950 ng · h/mL and 670 ng · h/mL.

Question: What about the AUCExtrap [4] of the same molecule?
Answer: The AUCExtrap was 4.07% and 4.18% and 6.90% and 10.7% and 6.70% and 13.0% and 13.4%.

Question: And the Cmax [4]?
Answer: The Cmax was 62.1 ng/mL and 62.0 ng/mL and 66.3 ng/mL and 71.0 ng/mL and 37.0 ng/mL and 281 ng/mL and 188 ng/mL.

Question: And the Tlast [4]?
Answer: Its Tlast is 96 h and 12 h (6×).

Question: And the Tmax [4]?
Answer: Its Tmax is 0.5 h.

Question: And the Plasma concentration (single oral dose of 800 mg, fasted, 0 h, individual subjects)?
Answer: Its Plasma concentration is “BQL”.

Question: What about the Plasma concentration (single oral dose of 800 mg, fasted, 48 h, individual subject) of the same molecule?
Answer: Its Plasma concentration is “BQL”.

Question: And the Plasma concentration (single oral dose of 800 mg, fasted, 72 h, individual subject)?
Answer: The Plasma concentration was “BQL”.

Question: What about the Plasma concentration (single oral dose of 800 mg, fasted, 96 h, individual subject) of the same molecule?
Answer: Its Plasma concentration is “BQL”.

Question: And the AUCExtrap (single oral dose of 800 mg, fasted, Geo Mean of subjects)?
Answer: The AUCExtrap was 5.6%.

Question: And the AUC0-12 [5]?
Answer: The AUC0-12 was 287 ng · h/mL and 2,573 ng · h/mL and 182 ng · h/mL and 167 ng · h/mL and 133 ng · h/mL and 583 ng · h/mL and 3,221 ng · h/mL and 251 ng · h/mL.

Question: And the AUC0-inf [5]?
Answer: The AUC0-inf was 317 ng · h/mL and 2,665 ng · h/mL and 185 ng · h/mL and 181 ng · h/mL and 141 ng · h/mL and 708 ng · h/mL and 4,902 ng · h/mL.

Question: What about the AUC0-last [5] of the same molecule?
Answer: The AUC0-last was 315 ng · h/mL and 2,573 ng · h/mL and 182 ng · h/mL and 167 ng · h/mL and 133 ng · h/mL and 583 ng · h/mL and 4,421 ng · h/mL and 251 ng · h/mL.

Question: And the AUCExtrap [5]?
Answer: Its AUCExtrap is 4.05% and 3.44% and 1.58% and 8.08% and 5.77% and 17.7% and 9.81%.

Question: What about the Cmax [5] of the same molecule?
Answer: The Cmax was 129 ng/mL and 1,760 ng/mL and 101 ng/mL and 64.3 ng/mL and 24.0 ng/mL and 80.5 ng/mL and 437 ng/mL and 43.3 ng/mL.

Question: What about the Tlast [5] of the same molecule?
Answer: Its Tlast is 24 h (2×) and 12 h (6×).

Question: And the Tmax [5]?
Answer: The Tmax was 0.5 h and 12 h.
